From patent US9149038B2, “4-amino-6-(heterocyclic)picolinates and 6-amino-2-(heterocyclic)pyrimidine-4-carboxylates and their use as herbicides” (Dow AgroSciences LLC, priority 2013, dated 2015)
Read-outs that look alike come from different tables or passages of the source.

Assays:
[1] = test system: Key Broadleaf Weed and Crop Species; assay: Post-Emergent Test II: postemergent herbicidal activity, visual rating after 14 d (Table 7); format: in vivo; conditions: post-emergence, 336 h; for pest or weed control at 35 g/ha: 35 g ai/ha; for pest or weed control at 70 g/ha: 70 g ai/ha; for pest or weed control at 140 g/ha: 140 g ai/ha
Outline: (§1)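 Greenhouse-grown plants at the first or second true leaf stage (7-21 d, ~15 h photoperiod, 23-29° C day) were sprayed with compound in acetone/DMSO-based aqueous spray containing crop oil concentrate and Triton X-155 at 187 L/ha. Injury versus untreated plants was rated visually after 14 d on a 0-100 scale.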

[2] = test system: Key Grass and Sedge Weeds as well as Grass Crops; assay: Post-Emergent Test II: postemergent herbicidal activity, visual rating after 14 d (Table 8); format: in vivo; conditions: post-emergence, 336 h; for pest or weed control at 35 g/ha: 35 g ai/ha; for pest or weed control at 70 g/ha: 70 g ai/ha; for pest or weed control at 140 g/ha: 140 g ai/ha
Outline: as §1

[3] = ABUTH: velvetleaf (Abutilon theophrasti), read-out: Visual Growth Reduction (%) 14 Days After Application ABUTH
[4] = AMARE: redroot pigweed (Amaranthus retroflexus), read-out: Visual Growth Reduction (%) 14 Days After Application AMARE
[5] = BRSNN: oilseed rape, canola (Brassica napus), read-out: Visual Growth Reduction (%) 14 Days After Application BRSNN
[6] = CHEAL: lambsquarters (Chenopodium album), read-out: Visual Growth Reduction (%) 14 Days After Application CHEAL
[7] = EPHHL: wild poinsettia (Euphorbia heterophylla), read-out: Visual Growth Reduction (%) 14 Days After Application EPHHL
[8] = HELAN: sunflower (Helianthus annuus), read-out: Visual Growth Reduction (%) 14 Days After Application HELAN
[9] = barnyardgrass (Echinochloa crus-galli), read-out: Visual Growth Reduction (%) 14 Days After Application, ECHCG
[10] = giant foxtail (Setaria faberi), read-out: Visual Growth Reduction (%) 14 Days After Application, SETFA
[11] = maize, corn (Zea mays), read-out: Visual Growth Reduction (%) 14 Days After Application, ZEAMX
[12] = rice (Oryza sativa), read-out: Visual Growth Reduction (%) 14 Days After Application, ORYSA
[13] = wheat, spring (Triticum aestivum), read-out: Visual Growth Reduction (%) 14 Days After Application, TRZAS
[14] = yellow nutsedge (Cyperus esculentus), read-out: Visual Growth Reduction (%) 14 Days After Application, CYPES

SMILES: COC(=O)c1nc(-c2ccc3c(c2)OCC3)c(F)c(N)c1Cl [Compound 100, Methyl 4-amino-3-chloro-6-(2,3-dihydrobenzofuran-6-yl)-5-fluoropicolinate]
- pest or weed control at 35 g/ha [1, 3]: 45 to 59%
- pest or weed control at 70 g/ha [1, 3]: 85 to 94%
- pest or weed control at 140 g/ha [1, 3]: 95 to 100%
- pest or weed control at 35 g/ha [1, 4]: 75 to 84%
- pest or weed control at 70 g/ha [1, 4]: 95 to 100%
- pest or weed control at 140 g/ha [1, 4]: 95 to 100%
- pest or weed control at 35 g/ha [1, 5]: 0 to 29%
- pest or weed control at 70 g/ha [1, 5]: 0 to 29%
- pest or weed control at 140 g/ha [1, 5]: 0 to 29%
- pest or weed control at 35 g/ha [1, 6]: 95 to 100%
- pest or weed control at 70 g/ha [1, 6]: 95 to 100%
- pest or weed control at 140 g/ha [1, 6]: 95 to 100%
- pest or weed control at 35 g/ha [1, 7]: 95 to 100%
- pest or weed control at 70 g/ha [1, 7]: 95 to 100%
- pest or weed control at 140 g/ha [1, 7]: 95 to 100%
- pest or weed control at 35 g/ha [1, 8]: 60 to 74%
- pest or weed control at 70 g/ha [1, 8]: 60 to 74%
- pest or weed control at 140 g/ha [1, 8]: 75 to 84%
- pest or weed control at 35 g/ha [2, 9]: 45 to 59%
- pest or weed control at 70 g/ha [2, 9]: 75 to 84%
- pest or weed control at 140 g/ha [2, 9]: 85 to 94%
- pest or weed control at 35 g/ha [2, 10]: 0 to 29%
- pest or weed control at 70 g/ha [2, 10]: 0 to 29%
- pest or weed control at 140 g/ha [2, 10]: 0 to 29%
- pest or weed control at 35 g/ha [2, 11]: 0 to 29%
- pest or weed control at 70 g/ha [2, 11]: 95 to 100%
- pest or weed control at 140 g/ha [2, 11]: 95 to 100%
- pest or weed control at 35 g/ha [2, 12]: 0 to 29%
- pest or weed control at 70 g/ha [2, 12]: 0 to 29%
- pest or weed control at 140 g/ha [2, 12]: 0 to 29%
- pest or weed control at 35 g/ha [2, 13]: 0 to 29%
- pest or weed control at 70 g/ha [2, 13]: 0 to 29%
- pest or weed control at 140 g/ha [2, 13]: 0 to 29%
- pest or weed control at 35 g/ha [2, 14]: 0 to 29%
- pest or weed control at 70 g/ha [2, 14]: 0 to 29%
- pest or weed control at 140 g/ha [2, 14]: 0 to 29%
